Experiments:
[1] = tested on: HCT-116 colon cancer cell lines; experiment: Matrigel Invasion Assay on HCT-116 colon cancer cell line; type: cell-based, human; conditions: HCT-116, Matrigel, 24 hours treatment, vs DMSO
Description: To evaluate the metastasis inhibitory efficacy of the compounds of the present invention on HCT-116 colon cancer cell lines, an Invasion Assay using Matrigel was performed to assess the cells' invasion ability.
First, Matrigel was thawed on ice in RPMI-1640 medium without FBS, then diluted with DMEM at a ratio of 1:20.
The diluted Matrigel mixture was applied to the upper chamber at 100 μl per well, and 750 μl of RPMI-1640 without FBS was added to the lower chamber.
The plates were then incubated at 37° C. for 1 hour to allow the Matrigel to solidify.
After coating, the Matrigel mixture in the upper chamber was removed using a pipette, and the chamber was washed with RPMI without FBS.
Human-derived colorectal cancer cell line HCT-116, obtained from the Korean Cell Bank, was cultured in RPMI-1640 medium containing 10% FBS.
Following stabilization, the cells were harvested using Trypsin-EDTA treatment, centrifuged at 1,200 rpm for 3 minutes, the supernatant was removed, and the cells were resuspended in the same medium, the medium in the lower chamber was replaced with 750 μl of RPMI-1640 supplemented with 10% FBS, and the cells were seeded into the upper chamber at a density of 5×10^4 cells/well.
The cells were cultured for 24 hours after attachment, and then the compounds according to the present invention (G078, G085, G086, G088, G089, PBK-2024-010, PBK-2025-010, PBK-2025-013, PBK-2025-016) and the control substance DMSO were diluted and added to the upper chamber after removing the medium.
Additionally, the medium in the lower chamber was replaced with fresh RPMI-1640 containing FBS, and the culture was continued.
After an additional 24 hours, the medium was removed, and 1 ml of methanol was added for 10 minutes to fix the cells.
Subsequently, 1 ml of Hematoxylin was added and reacted for 5 minutes, followed by 1 ml of Eosin, which was reacted for 30 seconds. The sample was then washed with distilled water (DW).
After staining was complete, any remaining cells in the upper chamber were removed. Finally, the infiltrated cells were observed under a microscope, photographed, and the degree of infiltration was analyzed.

[2] = tested on: Human B Lymphocyte cell line, SU-DHL-8; experiment: Relative cell viability, SU-DHL-8 (CCK-8); type: cell-based; conditions: 48 hours, untreated (DMSO) = 100%
Description: Human-derived B lymphoma cell line SU-DHL-8 (Cat. #CRL-2961) purchased from ATCC was cultured in RPMI-1640 medium containing 10% FBS, 100 U/mL penicillin, and 100 μg/mL streptomycin.
The cell culture medium was then harvested, centrifuged at 1,300 rpm for 5 minutes, and the supernatant was removed. The cells were resuspended in the same medium and dispensed into a 96-well plate (Costar 96-well cell culture plate, Corning) at 90 μL per well, resulting in the conditions specified in Table 5.
Then, 10 μL of CCK-8 was added to each well, and the plates were incubated again at 37° C. in a 5% CO2 incubator for 4 hours.
In other words, when the survival rate of untreated cells (DMSO) is set at 100%, the relative cell survival rate in each group treated with the drug at different concentrations is indicated.

[3] = tested on: T cells isolated from mouse spleens; experiment: T cell proliferation inhibition (CFSE flow cytometry, anti-CD3/anti-CD28 stimulation); type: cell-based, C57BL/6 mice; conditions: three days
Description: To verify the T cell proliferation inhibitory effect of the compounds according to the present invention, the following experiment was performed based on flow cytometry analysis using carboxyfluorescein diacetate succinimidyl ester (CFSE), a fluorescent dye that binds to intracellular molecules via covalent bonds.
Spleens were extracted from 7-week-old C57BL/6 mice, ground, and then separated into single cells using a strainer (40 μm pore size, SPL). Red blood cells were removed using ACK (Ammonium-Chloride-Potassium) lysis buffer to isolate white blood cells.
Finally, using a MACS Magnetic Stand and LS column, T cells were isolated from the spleen.
The T cells isolated from the spleen were resuspended in 1 mL of free medium (RPMI-1640+200 U/mL penicillin+200 μg/mL streptomycin), and 0.3 μL of CFSE (10 mM) was added. The mixture was incubated at 37° C. for 5 minutes.
Free medium (10 mL) was added to stop the reaction, and the cells were centrifuged to obtain the cell pellet.
RPMI 1640 medium containing 10% FBS, 100 U/mL penicillin, 100 μg/mL streptomycin, and resuspended the cells. The cells were then seeded into a 96-well plate at a density of 2× 10^5 cells per well and activated with CD3 and CD28 antibodies (0.5 μg/mL each) to activate T cells.
The compound diluted in DMSO was added at concentrations of 10 nM, 100 nM, 1 μM, 10 μM, 30 μM, and 50 μM, with three wells per concentration, and cultured at 37° C. and 5% CO2 for three days. The cells were then analyzed using a FACS Canto instrument.
The proliferation inhibition rate (%) was calculated using the following formula: […]

Row | SMILES | Relative cell viability (%) ([2]; SU-DHL-8, 1 μM) | Relative cell viability (%) ([2]; SU-DHL-8, 10 μM) | Relative cell viability (%) ([2]; SU-DHL-8, 30 μM) | Relative cell viability (%) ([2]; SU-DHL-8, 50 μM) | Proliferation inhibition rate (%) ([3]; concentration 1 μM) | Proliferation inhibition rate (%) ([3]; concentration 10 μM) | Proliferation inhibition rate (%) ([3]; concentration 30 μM) | Proliferation inhibition rate (%) ([3]; concentration 50 μM) | Proliferation inhibition rate (%) ([3]; concentration 100 nM) | further results
1 | O=C(NCCCCCCCCCCCCN1CCN2CCCC2C1)c1cccnc1 (stereo not drawn) [Compound 23, N-(12-(hexahydropyrrolo[1,2-a]pyrazin-2 (1H)-yl)dodecyl) nicotinamide] | – | – | – | – | – | – | – | – | – | number of infiltrated cells (invasion) [1]: reduction in the number of infiltrated cells
2 | Nc1ncccc1C(=O)NCCCCCCCCCCCCN1CC(F)C1 [Compound 52, 2-Amino-N-(12-(3-fluoroazetidin-1-yl)dodecyl)nicotinamide] | – | – | – | – | – | – | – | – | – | number of infiltrated cells (invasion) [1]: reduction in the number of infiltrated cells
3 | Nc1ncccc1C(=O)NCCCCCCCCCCCCN1CCNCC1 [Compound 5, 2-Amino-N-(12-(piperazin-1-yl)dodecyl)-nicotinamide] | – | – | – | – | – | – | – | – | – | number of infiltrated cells (invasion) [1]: reduction in the number of infiltrated cells
4 | Nc1ncccc1C(=O)NCCCCCCCCCCCCN1CCS(=O)(=O)CC1 [Compound 25, 2-Amino-N-(12-(1,1-dioxidothiomorpholino)dodecyl) nicotinamide] | 9.73% | 1.26% | 0.11% | 0.95% | 100.00% | 100.00% | 100.00% | 100.00% | – | –
5 | COC1CCN(CCCCCCCCCCCCNC(=O)c2cccnc2N)C1 (stereo not drawn) [Compound 126, 2-amino-N-(12-(3-methoxypyrrolidin-1-yl)dodecyl) nicotinamide] | – | – | – | – | 100.00% | 100.00% | 100.00% | 100.00% | 100.00% | Relative cell viability (%) ([2]; SU-DHL-8, 1 μM, listed as K-PB-48, 1 µM): 33.03%; Relative cell viability (%) ([2]; SU-DHL-8, 10 μM, listed as K-PB-48, 10 µM): 31.98%; Relative cell viability (%) ([2]; SU-DHL-8, 30 μM, listed as K-PB-48, 30 µM): 32.32%; Relative cell viability (%) ([2]; SU-DHL-8, 50 μM, listed as K-PB-48, 50 µM): 30.44%; Proliferation inhibition rate (%) ([3]; concentration 10 nM, listed as K-PB-48, 0.01 µM): 0.00%
6 | C[C@H]1CNCCN1CCCCCCCCCCCCNC(=O)c1cccnc1N.Cl [Compound 37, (S)-2-Amino-N-(12-(2-methylpiperazin-1-yl)dodecyl) nicotinamide hydrochloride] | 6.38% | 4.45% | 3.17% | 2.32% | 100.00% | 100.00% | 100.00% | 100.00% | – | –
7 | COC1CCN(CCCCCCCCCCCCNC(=O)c2cccnc2N)C1 (stereo not drawn) [Compound 32, 2-Amino-N-(12-(3-methoxypyrrolidin-1-yl)dodecyl) nicotinamide] | – | – | – | – | – | – | – | – | – | Relative cell viability (%) ([2]; SU-DHL-8, 1 μM, listed as PBK-2024-024, 1 µM): 3.48%; Relative cell viability (%) ([2]; SU-DHL-8, 10 μM, listed as PBK-2024-024, 10 µM): 3.01%; Relative cell viability (%) ([2]; SU-DHL-8, 30 μM, listed as PBK-2024-024, 30 µM): 1.97%; Relative cell viability (%) ([2]; SU-DHL-8, 50 μM, listed as PBK-2024-024, 50 µM): 1.45%; Proliferation inhibition rate (%) ([3]; concentration 10 nM, listed as PBK-2024-024, 0.01 µM): 0.29%
8 | CN1CCN(CCCCCCCCCCCCNC(=O)c2cccnc2F)CC1 [Compound 121, 2-fluoro-N-(12-(4-methylpiperazin-1-yl)dodecyl) nicotinamide] | 34.89% | 28.99% | 29.04% | 31.11% | 0.00% | 30.00% | 100.00% | 100.00% | 0.00% | Proliferation inhibition rate (%) ([3]; concentration 10 nM): 0.00%
9 | Nc1ncccc1C(=O)NCCCCCCCCCCCCN1CCC(F)C1 (stereo not drawn) [Compound 26, 2-Amino-N-(12-(3-fluoropyrrolidin-1-yl)dodecyl) nicotinamide] | 1.70% | 1.04% | 0.05% | – | 100.00% | 100.00% | 100.00% | 100.00% | 100.00% | –
10 | Cc1ccc(OC2CCN(CCCCCCCCCCCCNC(=O)c3cccnc3N)CC2)cc1 [Compound 51, 2-Amino-N-(12-(4-(p-tolyloxy)piperidin-1-yl)dodecyl) nicotinamide] | 3.48% | 1.98% | 0.89% | 0.48% | 100.00% | 100.00% | 100.00% | 100.00% | – | Proliferation inhibition rate (%) ([3]; concentration 10 nM): 0.77%
11 | CC1CCN(CCCCCCCCCCCCNC(=O)c2cccnc2N)C1 (stereo not drawn) [Compound 24, 2-Amino-N-(12-(3-methylpyrrolidin-1-yl)dodecyl) nicotinamide] | 8.38% | 1.65% | 0.62% | – | 100.00% | 100.00% | 100.00% | 100.00% | 100.00% | –
12 | CC1CN(C)C(CCCCCCCCCCCCNc2ccc3cncnc3n2)N1 (stereo not drawn) [Compound 43] | 22.61% | 11.93% | 2.34% | 1.58% | 100.00% | 100.00% | 100.00% | 100.00% | 100.00% | –
13 | Nc1ncccc1C(=O)NCCCCCCCCCCCCN1CCN(CCO)CC1 [Compound 54, 2-Amino-N-(12-(4-(2-hydroxyethyl)piperazin-1-yl)dodecyl) nicotinamide] | 6.42% | 4.05% | 3.26% | 2.23% | 100.00% | 100.00% | 100.00% | 100.00% | 100.00% | –

— patent publication US20260183302A1, “PDK1 REGULATORY COMPOUND AND COMPOSITION CONTAINING THE SAME” (PROVIBIO CO., LTD., priority 2024, published 2026)
